In patent US7868135B2, “Compositions of lipopeptide antibiotic derivatives and methods of use thereof” (priority 2003, dated 2011):
Starred links: 1 amine or outer side, 2 acyl side, 3 side chain; linkers in the order of their positions; H or OH if unused. Positions of bridges follow the written chain, without caps; N, C: chain ends. Non-standard residues stand in square brackets, D forms with d. Residues, ends and D or L forms follow the SMILES beside them. ξ: configuration not given here. *: point of attachment. X6 = CC(NC(=O)C12CC3CC(CC(C3)C1)C2)C(N[*:1])C(=O)[*:2]; X10 = CC(C)=CCC/C(C)=C/C(=O)NC(C)C(N[*:1])C(=O)[*:2]; X11 = CC(NC(=O)CC1CC2CCC1C2)C(N[*:1])C(=O)[*:2]; X42 = CC(NC(=O)CNCc1ccccc1)C(N[*:1])C(=O)[*:2]; X40 = CC(NC(=O)CCN1CCNCC1)C(N[*:1])C(=O)[*:2]; X15 = CC(NC(=O)CCNC(N)=O)C(N[*:1])C(=O)[*:2]; X45 = CCN(CC)CCC(=O)NC(C)C(N[*:1])C(=O)[*:2]; ξAbu(βξ-NH2) = CC(N[*:3])C(N[*:1])C(=O)[*:2]; X21 = CC(=O)SCC(=O)NC(C)C(N[*:1])C(=O)[*:2]; X26 = COC(=O)CC(=O)NC(C)C(N[*:1])C(=O)[*:2]; X38 = CC(NC(=O)CCCN(C)C)C(N[*:1])C(=O)[*:2]; X16 = CCC(=O)C(=O)NC(C)C(N[*:1])C(=O)[*:2]; X24 = C/C=C/C(=O)NC(C)C(N[*:1])C(=O)[*:2]; X20 = CC#CC(=O)NC(C)C(N[*:1])C(=O)[*:2]; X44 = CCNCC(=O)NC(C)C(N[*:1])C(=O)[*:2]; X39 = C=CC(=O)NC(C)C(N[*:1])C(=O)[*:2]; Pentadecanoyl = CCCCCCCCCCCCCCC(=O)*; ξAsp(βξ-Me) = CC(C(=O)O)C(N)C(=O)O; X27 = CCCCCCCC/C=C/CCCCCCCC(=O)*; Pip = O=C(O)[CH]1CCCCN1

System: Staphylococcus aureus (MSSA)
Settings: 24 h
Method in brief: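 Broth microdilution MIC per NCCLS M7-A6 with doubling serial dilutions, in cation-adjusted Mueller-Hinton broth supplemented with 0.625 mM calcium.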

Row | Compound | MIC [µg/mL]
1 | C/C=C/C(=O)NC(C)C1NC(=O)CNC(=O)C(CC(=O)O)NC(=O)CNC(=O)C(CC(=O)O)NC(=O)C(C(C)C(=O)O)NC(=O)C2CCCCN2C(=O)C(NC(=O)C(CC(=O)O)NC(=O)CCCCCCCCCCCCCC)C(C)NC(=O)C2CCCN2C(=O)C(C(C)C)NC1=O (stereo not drawn) [Compound 218, C15-Amphomycin-9-Crotonyl] (Pentadecanoyl-D[ξAbu(βξ-NH2)][Pip][ξAsp(βξ-Me)]DGDG[X24]VP; lactam 2-C; configuration not given here) | 8
2 | CCCCCCCCCCCCCCC(=O)NC(CC(=O)O)C(=O)NC1C(=O)N2CCCCC2C(=O)NC(C(C)C(=O)O)C(=O)NC(CC(=O)O)C(=O)NCC(=O)NC(CC(=O)O)C(=O)NCC(=O)NC(C(C)NC(=O)C(=O)CC)C(=O)NC(C(C)C)C(=O)N2CCCC2C(=O)NC1C (stereo not drawn) [Compound 223, C15-Amphomycin-9-(α-Ketobutyl)] (Pentadecanoyl-D[ξAbu(βξ-NH2)][Pip][ξAsp(βξ-Me)]DGDG[X16]VP; lactam 2-C; configuration not given here) | 16
3 | CCCCCCCCCCCCCCC(=O)NC(CC(=O)O)C(=O)NC1C(=O)N2CCCCC2C(=O)NC(C(C)C(=O)O)C(=O)NC(CC(=O)O)C(=O)NCC(=O)NC(CC(=O)O)C(=O)NCC(=O)NC(C(C)NC(=O)/C=C(\C)CCC=C(C)C)C(=O)NC(C(C)C)C(=O)N2CCCC2C(=O)NC1C (stereo not drawn) [Compound 224, C15-Amphomycin-9-Geranyl] (Pentadecanoyl-D[ξAbu(βξ-NH2)][Pip][ξAsp(βξ-Me)]DGDG[X10]VP; lactam 2-C; configuration not given here) | 8
4 | CC#CC(=O)NC(C)C1NC(=O)CNC(=O)C(CC(=O)O)NC(=O)CNC(=O)C(CC(=O)O)NC(=O)C(C(C)C(=O)O)NC(=O)C2CCCCN2C(=O)C(NC(=O)C(CC(=O)O)NC(=O)CCCCCCCCCCCCCC)C(C)NC(=O)C2CCCN2C(=O)C(C(C)C)NC1=O (stereo not drawn) [Compound 227, C15-Amphomycin-9-(2-Butynyl)] (Pentadecanoyl-D[ξAbu(βξ-NH2)][Pip][ξAsp(βξ-Me)]DGDG[X20]VP; lactam 2-C; configuration not given here) | 32
5 | CCCCCCCCCCCCCCC(=O)NC(CC(=O)O)C(=O)NC1C(=O)N2CCCCC2C(=O)NC(C(C)C(=O)O)C(=O)NC(CC(=O)O)C(=O)NCC(=O)NC(CC(=O)O)C(=O)NCC(=O)NC(C(C)NC(=O)CC(=O)OC)C(=O)NC(C(C)C)C(=O)N2CCCC2C(=O)NC1C (stereo not drawn) [Compound 231] (Pentadecanoyl-D[ξAbu(βξ-NH2)][Pip][ξAsp(βξ-Me)]DGDG[X26]VP; lactam 2-C; configuration not given here) | 8
6 | CCCCCCCCCCCCCCC(=O)NC(CC(=O)O)C(=O)NC1C(=O)N2CCCCC2C(=O)NC(C(C)C(=O)O)C(=O)NC(CC(=O)O)C(=O)NCC(=O)NC(CC(=O)O)C(=O)NCC(=O)NC(C(C)NC(=O)C23CC4CC(CC(C4)C2)C3)C(=O)NC(C(C)C)C(=O)N2CCCC2C(=O)NC1C (stereo not drawn) [Compound 232, C15-Amphomycin-9-(1-Adamantanylcarbonyl)] (Pentadecanoyl-D[ξAbu(βξ-NH2)][Pip][ξAsp(βξ-Me)]DGDG[X6]VP; lactam 2-C; configuration not given here) | 4
7 | CCCCCCCC/C=C/CCCCCCCC(=O)NC(C)C1NC(=O)CNC(=O)C(CC(=O)O)NC(=O)CNC(=O)C(CC(=O)O)NC(=O)C(C(C)C(=O)O)NC(=O)C2CCCCN2C(=O)C(NC(=O)C(CC(=O)O)NC(=O)CCCCCCCCCCCCCC)C(C)NC(=O)C2CCCN2C(=O)C(C(C)C)NC1=O (stereo not drawn) [Compound 238, C15-Amphomycin-9-Oleate] (Pentadecanoyl-D[ξAbu(βξ-NH2)][Pip][ξAsp(βξ-Me)]DGDG[ξAbu(βξ-NH2)](X27)VP; lactam 2-C; configuration not given here) | 1 to 2
8 | CCCCCCCCCCCCCCC(=O)NC(CC(=O)O)C(=O)NC1C(=O)N2CCCCC2C(=O)NC(C(C)C(=O)O)C(=O)NC(CC(=O)O)C(=O)NCC(=O)NC(CC(=O)O)C(=O)NCC(=O)NC(C(C)NC(=O)CCN2CCNCC2)C(=O)NC(C(C)C)C(=O)N2CCCC2C(=O)NC1C (stereo not drawn) [Compound 241] (Pentadecanoyl-D[ξAbu(βξ-NH2)][Pip][ξAsp(βξ-Me)]DGDG[X40]VP; lactam 2-C; configuration not given here) | 1 to 2
9 | CCCCCCCCCCCCCCC(=O)NC(CC(=O)O)C(=O)NC1C(=O)N2CCCCC2C(=O)NC(C(C)C(=O)O)C(=O)NC(CC(=O)O)C(=O)NCC(=O)NC(CC(=O)O)C(=O)NCC(=O)NC(C(C)NC(=O)CNCC)C(=O)NC(C(C)C)C(=O)N2CCCC2C(=O)NC1C (stereo not drawn) [Compound 243, C15-Amphomycin-9-(N-Ethyl-Gly)] (Pentadecanoyl-D[ξAbu(βξ-NH2)][Pip][ξAsp(βξ-Me)]DGDG[X44]VP; lactam 2-C; configuration not given here) | 0.5 to 1

Results, then the compound that gave them:

Row | MIC [µg/mL] | Compound
10 | 4 | CCCCCCCCCCCCCCC(=O)NC(CC(=O)O)C(=O)NC1C(=O)N2CCCCC2C(=O)NC(C(C)C(=O)O)C(=O)NC(CC(=O)O)C(=O)NCC(=O)NC(CC(=O)O)C(=O)NCC(=O)NC(C(C)NC(=O)CC2CC3CCC2C3)C(=O)NC(C(C)C)C(=O)N2CCCC2C(=O)NC1C (stereo not drawn) [Compound 208, C15-Amphomycin-9-(2-Norbornaneacetyl)] (Pentadecanoyl-D[ξAbu(βξ-NH2)][Pip][ξAsp(βξ-Me)]DGDG[X11]VP; lactam 2-C; configuration not given here)
11 | 1 | CCCCCCCCCCCCCCC(=O)NC(CC(=O)O)C(=O)NC1C(=O)N2CCCCC2C(=O)NC(C(C)C(=O)O)C(=O)NC(CC(=O)O)C(=O)NCC(=O)NC(CC(=O)O)C(=O)NCC(=O)NC(C(C)NC(=O)CCNC(N)=O)C(=O)NC(C(C)C)C(=O)N2CCCC2C(=O)NC1C (stereo not drawn) [Compound 212, C15-Amphomycin-9-(Carbamoyl-β-Ala)] (Pentadecanoyl-D[ξAbu(βξ-NH2)][Pip][ξAsp(βξ-Me)]DGDG[X15]VP; lactam 2-C; configuration not given here)
12 | 2 | C=CC(=O)NC(C)C1NC(=O)CNC(=O)C(CC(=O)O)NC(=O)CNC(=O)C(CC(=O)O)NC(=O)C(C(C)C(=O)O)NC(=O)C2CCCCN2C(=O)C(NC(=O)C(CC(=O)O)NC(=O)CCCCCCCCCCCCCC)C(C)NC(=O)C2CCCN2C(=O)C(C(C)C)NC1=O (stereo not drawn) [Compound 213, C15-Amphomycin-9-Acryl] (Pentadecanoyl-D[ξAbu(βξ-NH2)][Pip][ξAsp(βξ-Me)]DGDG[X39]VP; lactam 2-C; configuration not given here)
13 | 2 | CCCCCCCCCCCCCCC(=O)NC(CC(=O)O)C(=O)NC1C(=O)N2CCCCC2C(=O)NC(C(C)C(=O)O)C(=O)NC(CC(=O)O)C(=O)NCC(=O)NC(CC(=O)O)C(=O)NCC(=O)NC(C(C)NC(=O)CCCCCCCCC)C(=O)NC(C(C)C)C(=O)N2CCCC2C(=O)NC1C (centres unmarked) [Compound 220, C15-Amphomycin-9-C10]
14 | 2 | CCCCCCCCCCCCCCC(=O)NC(CC(=O)O)C(=O)NC1C(=O)N2CCCCC2C(=O)NC(C(C)C(=O)O)C(=O)NC(CC(=O)O)C(=O)NCC(=O)NC(CC(=O)O)C(=O)NCC(=O)NC(C(C)NC(=O)CSC(C)=O)C(=O)NC(C(C)C)C(=O)N2CCCC2C(=O)NC1C (stereo not drawn) [Compound 235, C15-Amphomycin-9-(S-Acetylthioglycolyl)] (Pentadecanoyl-D[ξAbu(βξ-NH2)][Pip][ξAsp(βξ-Me)]DGDG[X21]VP; lactam 2-C; configuration not given here)
15 | 1 to 2 | CCCCCCCCCCCCCCC(=O)NC(CC(=O)O)C(=O)NC1C(=O)N2CCCCC2C(=O)NC(C(C)C(=O)O)C(=O)NC(CC(=O)O)C(=O)NCC(=O)NC(CC(=O)O)C(=O)NCC(=O)NC(C(C)NC(=O)CCCN(C)C)C(=O)NC(C(C)C)C(=O)N2CCCC2C(=O)NC1C (stereo not drawn) [Compound 242, C15-Amphomycin-9-(N,N′-Dimethyl-GABA)] (Pentadecanoyl-D[ξAbu(βξ-NH2)][Pip][ξAsp(βξ-Me)]DGDG[X38]VP; lactam 2-C; configuration not given here)
16 | 1 | CCCCCCCCCCCCCCC(=O)NC(CC(=O)O)C(=O)NC1C(=O)N2CCCCC2C(=O)NC(C(C)C(=O)O)C(=O)NC(CC(=O)O)C(=O)NCC(=O)NC(CC(=O)O)C(=O)NCC(=O)NC(C(C)NC(=O)CNCc2ccccc2)C(=O)NC(C(C)C)C(=O)N2CCCC2C(=O)NC1C (stereo not drawn) [Compound 245, C15-Amphomycin-9-(N-Benzyl-Gly)] (Pentadecanoyl-D[ξAbu(βξ-NH2)][Pip][ξAsp(βξ-Me)]DGDG[X42]VP; lactam 2-C; configuration not given here)
17 | 2 | CCCCCCCCCCCCCCC(=O)NC(CC(=O)O)C(=O)NC1C(=O)N2CCCCC2C(=O)NC(C(C)C(=O)O)C(=O)NC(CC(=O)O)C(=O)NCC(=O)NC(CC(=O)O)C(=O)NCC(=O)NC(C(C)NC(=O)CCN(CC)CC)C(=O)NC(C(C)C)C(=O)N2CCCC2C(=O)NC1C (stereo not drawn) [Compound 246, C15-Amphomycin-9-(N,N-Diethyl-β-Ala)] (Pentadecanoyl-D[ξAbu(βξ-NH2)][Pip][ξAsp(βξ-Me)]DGDG[X45]VP; lactam 2-C; configuration not given here)
18 | 2 to 4 | CCCCCCCCCCCCCCCCNC(=O)NC(CC(=O)O)C(=O)NC1C(=O)N2CCCCC2C(=O)NC(C(C)C(=O)O)C(=O)NC(CC(=O)O)C(=O)NCC(=O)NC(CC(=O)O)C(=O)NCC(=O)NC(C(C)N)C(=O)NC(C(C)C)C(=O)N2CCCC2C(=O)NC1C (centres unmarked) [Compound 249, CH3—(CH2)15—NH—C(═O)-Amphomycin]

Same assay, conditions: S. aureus (MSSA), CAMHB supplemented with 0.625 mM calcium, 24 hours at about 37° C.; a range = compound tested multiple times

Row | Compound | MIC [µg/mL]
19 | CCCCCCCCCCCCCCC(=O)NC(CC(=O)O)C(=O)NC1C(=O)N2CCCCC2C(=O)NC(C(C)C(=O)O)C(=O)NC(CC(=O)O)C(=O)NCC(=O)NC(CC(=O)O)C(=O)NCC(=O)NC(C(C)NC(=O)[C@@H]2CCC(=O)O2)C(=O)NC(C(C)C)C(=O)N2CCCC2C(=O)NC1C (stereo partly drawn) [Compound 210, C15-Amphomycin-9-((S)-(+)-5-Oxo-2-Tetrahydrofurancarbonyl)] | 2
20 | CCCCCCCCCCCCCCC(=O)NC(CC(=O)O)C(=O)NC1C(=O)N2CCCCC2C(=O)NC(C(C)C(=O)O)C(=O)NC(CC(=O)O)C(=O)NCC(=O)NC(CC(=O)O)C(=O)NCC(=O)NC(C(C)NC(=O)CCCCC(C)=O)C(=O)NC(C(C)C)C(=O)N2CCCC2C(=O)NC1C (centres unmarked) [Compound 237, C15-Amphomycin-9-(6-Oxoheptanoyl)] | 16
